Results from the NIST ThermoML archive (doi:10.1021/je100313a).
“And” between values parts separate entries of the source, which are not always exact repeats. Equal values may be shown once. Numbers after ± are expanded uncertainties.

Key:
[1] = xn = mol fraction of the nth substance listed; settings: 101 kPa, Liquid
[2] = 101 kPa, Liquid

C1C[C@@H]2[C@H]3CC[C@H](C3)[C@@H]2C1 [exo-tetrahydrodicyclopentadiene] + CCCCCCCCCCCCCC
[1]
Settings	mass density, 293.15 K [kg/m3]	mass density, 298.15 K [kg/m3]	mass density, 303.15 K [kg/m3]	mass density, 313.15 K [kg/m3]	viscosity, 293.15 K [mPa·s]	viscosity, 298.15 K [mPa·s]	viscosity, 303.15 K [mPa·s]	viscosity, 313.15 K [mPa·s]
x2 = 0	935.3 ± 1	931.4 ± 1	927.5 ± 1	919.6 ± 1	3.077 ± 0.046	2.784 ± 0.042	2.525 ± 0.039	2.112 ± 0.034
x2 = 0.0703	914.6 ± 1	910.8 ± 1	906.9 ± 1	899.2 ± 1	2.961 ± 0.044	2.679 ± 0.041	2.429 ± 0.038	2.034 ± 0.033
x2 = 0.1451	894.8 ± 1	891 ± 1	887.1 ± 1	879.5 ± 1	2.857 ± 0.042	2.582 ± 0.039	2.343 ± 0.036	1.958 ± 0.032
x2 = 0.2274	875.5 ± 0.9	871.7 ± 0.9	868 ± 0.9	860.4 ± 1	2.766 ± 0.04	2.496 ± 0.037	2.259 ± 0.034	1.888 ± 0.03
x2 = 0.2692	866.5 ± 0.9	862.7 ± 0.9	859 ± 0.9	851.4 ± 1	2.724 ± 0.04	2.456 ± 0.036	2.223 ± 0.034	1.857 ± 0.03
x2 = 0.4088	839.5 ± 0.9	835.8 ± 0.9	832.1 ± 0.9	824.7 ± 0.9	2.609 ± 0.037	2.35 ± 0.034	2.125 ± 0.032	1.777 ± 0.028
x2 = 0.5067	823.2 ± 0.9	819.5 ± 0.9	815.9 ± 0.9	808.5 ± 0.9	2.544 ± 0.036	2.291 ± 0.033	2.072 ± 0.031	1.734 ± 0.028
x2 = 0.616	807 ± 0.9	803.4 ± 0.9	799.8 ± 0.9	792.5 ± 0.9	2.487 ± 0.035	2.243 ± 0.032	2.028 ± 0.03	1.698 ± 0.027
x2 = 0.7324	791.7 ± 0.9	788.2 ± 0.9	784.6 ± 0.9	777.4 ± 0.9	2.438 ± 0.034	2.197 ± 0.031	1.983 ± 0.029	1.663 ± 0.026
x2 = 0.8606	776.9 ± 0.9	773.4 ± 0.9	769.8 ± 0.9	762.7 ± 0.9	2.39 ± 0.032	2.151 ± 0.03	1.94 ± 0.028	1.629 ± 0.025

C1C[C@@H]2[C@H]3CC[C@H](C3)[C@@H]2C1 [exo-tetrahydrodicyclopentadiene]
[2]
Settings	mass density [kg/m3]	viscosity
293.15 K	935.3 ± 1	3.076 ± 0.046 mPa·s and 3.077 ± 0.046 mPa·s
298.15 K	931.4 ± 1	2.784 ± 0.042 mPa·s
303.15 K	927.5 ± 1	2.525 ± 0.039 mPa·s
313.15 K	919.6 ± 1	2.112 ± 0.034 mPa·s

CCCCCCCCCCC [undecane] + C1C[C@@H]2[C@H]3CC[C@H](C3)[C@@H]2C1
[1], x1 = 1
Settings	mass density [kg/m3]	viscosity [mPa·s]
293.15 K	740.4 ± 0.9	1.199 ± 0.022
298.15 K	736.7 ± 0.9	1.099 ± 0.021
303.15 K	733 ± 0.9	1.022 ± 0.02
313.15 K	725.6 ± 0.9	0.878 ± 0.019

CCCCCCCCCCCCCC [tetradecane] + C1C[C@@H]2[C@H]3CC[C@H](C3)[C@@H]2C1
[1], x1 = 1
Settings	mass density [kg/m3]	viscosity [mPa·s]
293.15 K	762.9 ± 0.9	2.346 ± 0.031
298.15 K	759.2 ± 0.9	2.107 ± 0.029
303.15 K	755.7 ± 0.9	1.897 ± 0.027
313.15 K	748.6 ± 0.9	1.594 ± 0.025

CCCCCCCCCCCCCC [tetradecane]
[2]
Settings	mass density [kg/m3]	viscosity [mPa·s]
293.15 K	762.9 ± 0.9	2.346 ± 0.031
298.15 K	759.2 ± 0.9	2.107 ± 0.029
303.15 K	755.7 ± 0.9	1.897 ± 0.027
313.15 K	748.6 ± 0.9	1.594 ± 0.025

C1C[C@@H]2[C@H]3CC[C@H](C3)[C@@H]2C1 [exo-tetrahydrodicyclopentadiene] + CCCCCCCCCCC
[1]
Settings	mass density, 293.15 K [kg/m3]	mass density, 298.15 K [kg/m3]	mass density, 303.15 K [kg/m3]	mass density, 313.15 K [kg/m3]	viscosity, 293.15 K [mPa·s]	viscosity, 298.15 K [mPa·s]	viscosity, 303.15 K [mPa·s]	viscosity, 313.15 K [mPa·s]
x2 = 0	935.3 ± 1	931.4 ± 1	927.5 ± 1	919.6 ± 1	3.076 ± 0.046	2.784 ± 0.042	2.525 ± 0.039	2.112 ± 0.034
x2 = 0.0881	911.7 ± 1	907.8 ± 1	903.9 ± 1	896.1 ± 1	2.697 ± 0.041	2.439 ± 0.038	2.228 ± 0.035	1.856 ± 0.031
x2 = 0.1777	889.3 ± 0.9	885.4 ± 1	881.6 ± 1	873.8 ± 1	2.39 ± 0.036	2.162 ± 0.034	1.982 ± 0.032	1.662 ± 0.028
x2 = 0.2711	867.6 ± 0.9	863.7 ± 0.9	859.9 ± 0.9	852.1 ± 0.9	2.135 ± 0.033	1.937 ± 0.031	1.78 ± 0.029	1.499 ± 0.026
x2 = 0.3669	846.8 ± 0.9	843 ± 0.9	839.2 ± 0.9	831.5 ± 0.9	1.921 ± 0.03	1.751 ± 0.028	1.615 ± 0.027	1.362 ± 0.024
x2 = 0.4654	827 ± 0.9	823.1 ± 0.9	819.3 ± 0.9	811.7 ± 0.9	1.747 ± 0.028	1.594 ± 0.026	1.47 ± 0.025	1.246 ± 0.023
x2 = 0.5658	808.2 ± 0.9	804.4 ± 0.9	800.6 ± 0.9	793 ± 0.9	1.608 ± 0.026	1.47 ± 0.025	1.359 ± 0.024	1.158 ± 0.022
x2 = 0.6685	790.3 ± 0.9	786.6 ± 0.9	782.8 ± 0.9	775.2 ± 0.9	1.483 ± 0.025	1.358 ± 0.024	1.256 ± 0.023	1.074 ± 0.021
x2 = 0.778	772.6 ± 0.9	768.9 ± 0.9	765.2 ± 0.9	757.7 ± 0.9	1.373 ± 0.023	1.259 ± 0.022	1.167 ± 0.022	1 ± 0.02
x2 = 0.8855	756.5 ± 0.9	752.7 ± 0.9	749 ± 0.9	741.6 ± 0.9	1.284 ± 0.022	1.177 ± 0.022	1.093 ± 0.021	0.941 ± 0.02

CCCCCCCCCCC [undecane]
[2]
Settings	mass density [kg/m3]	viscosity [mPa·s]
293.15 K	740.4 ± 0.9	1.199 ± 0.022
298.15 K	736.7 ± 0.9	1.099 ± 0.021
303.15 K	733 ± 0.9	1.022 ± 0.02
313.15 K	725.6 ± 0.9	0.878 ± 0.019
